The values that follow come from patent US12370198B2, “Pharmaceutical compositions and methods for treating psychiatric disorders” (LA PHARMATECH INC., priority 2022, dated 2025).

Assay [1] relates to mild chronic depression (MCD). Briefly: Clinical case treatment of a patient with mild chronic depression. The format is in vivo, human. Conditions: Example 3. The method, then: The patient was prescribed with ebastine 30 mg for 3 weeks from the first clinic visit. […] Then they were prescribed with a combination of ebastine (10 mg) and alprazolam (0.5 mg) for a 4-week treatment.

The next assay concerns allergic rhinitis. The assay is described as follows: Clinical case treatment of allergic rhinitis. The format is in vivo, human. Conditions: Example 3, person; ebastine 30 mg for 3 weeks. Here is the method: A patient with no insomnia symptom was having allergic rhinitis with itchy nose, mouth and eyes, frequent sneezing, watery eyes and coughing, and runny nose when they were diagnosed with mild chronic depression (MCD) but showing symptoms of sadness, lack of interest, loneliness and helpless, consistent frustration for 4 weeks with failed treatment history of allergic rhinitis. The patient was prescribed with ebastine 30 mg for 3 weeks from the first clinic visit. […] But their symptoms from MCD were persistent. […] Then they were prescribed with a combination of ebastine (10 mg) and alprazolam (0.5 mg) for a 4-week treatment.

Assay [2] deals with release of prostaglandin D2 (PGD2) and leukotrienes C4/D4 (LTC4/D4). Conditions: background statement; cited from earlier work.
The subject of assay [3] is release of cytokines (GM-CSF, tumour necrosis factor-a, interleukin-8). Conditions: background statement; cited from earlier work.
The test system of assay [4] is generalized anxiety disorder (GAD). Briefly: Clinical case treatment of patients with generalized anxiety disorder. The format is in vivo, human. Conditions: for improvement of GAD reported by patient: Example 1, person. Here is the method:
A patient was diagnosed with generalized anxiety disorder (GAD) and they had no complaints of having insomnia. […] Then they were treated with the combination of ebastine (20 mg) and alprazolam (1 mg) for 2 weeks. […] The inventors believe the composition of two mechanisms of actions provided a new solution for treating their GAD which could not be treated with alprazolam and the like alone.
A patient with no insomnia symptom order was diagnosed with GAD. The patient was treated with alprazolam (2 mg) for 2 weeks from their first clinic visit and alprazolam (4 mg) for 2 weeks from their second clinic visit. […] On the third clinic visit, the patient was prescribed with the combination of ebastine (10 mg) and alprazolam (4 mg). […] The inventors believe that the two compositions of two mechanisms of actions provided a new solution for treating their […] which could not be treated with other options.

Assay [5] deals with major depressive disorder (MDD). The assay is described as follows: Clinical case treatment of patients with major depressive disorder. Conditions: for improvement of MDD: alprazolam 5 mg for 2 weeks; for outcome of previous anti-depressant treatment of MDD: Example 2, person; for outcome of previous anti-depressant treatment of MDD / outcome of previous treatments of MDD symptoms: previous treatments; for outcome of previous treatments of MDD symptoms: Example 4, person. The format is in vivo, human. Here is the method:
A patient having no insomnia symptom was diagnosed with major depressive disorder (MDD) showing persistent sadness, loneliness, helpless, and hapless. […] Then they were prescribed with a combination of ebastine (30 mg) and alprazolam (5 mg) for 4 weeks.
A patient with no insomnia symptom was diagnosed with major depressive disorder (MDD) with persistent sadness, lack of interest, and feeling lonely. […] Then they were treated with a combination of ebastine (30 mg) and alprazolam (0.5 mg) for 4 weeks from the second clinic visits.

Assay [6] relates to premenstrual dysphoric disorder (PDD). The assay is described as follows: Clinical case treatment of a patient with premenstrual dysphoric disorder. The format is in vivo, human. Here is the method: A patient with no insomnia symptom was diagnosed with premenstrual dysphoric disorder (PDD) with symptoms of persistent hopelessness, sadness, anxiety and frequent tearfulness on the first clinic visit and was provided with fluoxetine 40 mg for 3 weeks. […] Then the patient was prescribed with the combination of ebastine (20 mg) and alprazolam (2 mg) for 2 weeks.

The subject of a further assay is REM sleep. Conditions: background studies; cited from earlier work.

For `CC(C)(C)c1ccc(C(=O)CCCN2CCC(OC(c3ccccc3)c3ccccc3)CC2)cc1` [ebastine, 4-diphenylmethoxy-1-[3-(4-tert-butylbenzoyl)-propyl]piperidine], in assay [1] (ebastine 30 mg for 3 weeks), the “symptoms from MCD” value is “persistent”. Besides, the “recovery from allergic rhinitis” value with allergic rhinitis was “complete recovery”. For the same compound, the “anti-IgE-induced release of prostaglandin D2 (PGD2) and leukotrienes C4/D4 (LTC4/D4)” value in assay [2] is recorded as “significantly inhibits”. Besides, the “release of cytokines, including GM-CSF, tumour necrosis factor-a and interleukin-8” value in assay [3] was “inhibited”.
As to `Cc1nnc2n1-c1ccc(Cl)cc1C(c1ccccc1)=NC2` [alprazolam, 8-chloro-1-methyl-6-phenyl-4H-s-triazolo[4,3-a][1,4]benzodiazepine], the “improvement of GAD reported by patient” value in assay [4] (alprazolam 0.5 mg for 2 weeks) and in assay [4] (alprazolam 2 mg for 2 weeks) was “no improvement” each time. Besides, the “improvement of GAD symptoms (anxiety, agitation, sweating, nausea, headaches)” value is reported as “failed to improve” in assay [4] (Example 5, person, alprazolam (2 mg) for 2 weeks) and “failed to improve” in assay [4] (Example 5, alprazolam (4 mg) for 2 weeks). Moreover, the “improvement of MDD” value in assay [5] (Example 2) is reported as “no improvement”; in assay [5] (Example 4), 20%. Besides, the “improvement of MCD symptoms” value in assay [1] (alprazolam 1 mg for 3 weeks) is “no improvement”. For the same compound, in assay [6] (Example 6, alprazolam (2 mg) for 2 weeks), the “improvement of PDD symptoms” value was “failed to improve”. Besides, in the assay with REM sleep, the REM latency result is “increases”. The “length of REM periods and frequency of REM burst activities” value in the assay on REM sleep is recorded as “significantly decreases”.
For the compound `CNCC[C@H](Oc1cccc2ccccc12)c1cccs1` [duloxetine], in assay [5], the “outcome of previous anti-depressant treatment of MDD” value is “failed”.
For `CC(C)(C(=O)O)c1ccc(C(=O)CCCN2CCC(OC(c3ccccc3)c3ccccc3)CC2)cc1` [carebastine], the “release of PGD2” value in assay [2] is listed as “inhibits”.
On to `CC(NC(C)(C)C)C(=O)c1cccc(Cl)c1` (centres unmarked) [bupropion], for which, in assay [5], the “outcome of previous anti-depressant treatment of MDD” value is “failed” and the “outcome of previous treatments of MDD symptoms” value is “failed to improve”.
In the case of `CNCCC(Oc1ccc(C(F)(F)F)cc1)c1ccccc1` (centres unmarked) [fluoxetine], the “outcome of previous treatments of MDD symptoms” value in assay [5] is given as “failed to improve”. Also, the “improvement of PDD symptoms” value in assay [6] (Example 6, person, fluoxetine 40 mg for 3 weeks) is “no improvement”.
